Read-outs that look alike come from different tables or passages of the source. Strand notation (5' to 3'): a small letter for the sugar, then the base; units joined by * are phosphorothioate-linked, units joined directly phosphodiester-linked; [ ] holds rarer units or linkages, { } end groups; capitals alone tell only the bases. [ms] = mesyl phosphoramidate linkage; e = 2'-O-(2-methoxyethyl) (MOE); k = constrained ethyl (cEt); [5mC] = 5-methylcytosine; d = 2'-deoxy (DNA)
What was measured:
[1] = tested on: human APOE RNA; assay: Dose-dependent reduction of human APOE RNA in HepG2 cells, electroporation, 20,000 cells per well, normalized to PPIA (Example 4, Table 11); format: cell-based; conditions: HepG2 cells, 20,000 cells per well, approximately 24 hours; for APOE RNA (% UTC) 5 nM / APOE RNA (% UTC) 13 nM / APOE RNA (% UTC) 33 nM / APOE RNA (% UTC) 82 nM / APOE RNA (% UTC) 205 nM / APOE RNA (% UTC) 512 nM / IC50: PPIA-normalized; for APOE RNA (% UTC) 1,280 nM: PPIA-normalized, 1,280 nM; for APOE RNA (% UTC) 3,200 nM: PPIA-normalized, 3,200 nM; for APOE RNA (% UTC) 8,000 nM: PPIA-normalized, 8,000 nM; for APOE RNA (% UTC) 20,000 nM: PPIA-normalized, 20,000 nM; for IC50: reduction of human APOE RNA
Procedure: HepG2 cells plated at a density of 20,000 cells per well were treated by electroporation with various concentrations of modified oligonucleotide as specified in the tables below. […] APOE RNA levels were measured using the human primer probe set RTS3073 (described herein above). APOE RNA levels were normalized to human PPIA. Human PPIA was amplified using human primer probe set mk_cycloA_2nd (forward sequence […], designated herein as SEQ ID NO: 13; reverse sequence […], designated herein as SEQ ID NO: 14; probe sequence […], designated herein as SEQ ID NO: 15). Normalized results are presented in the table below as percent APOE RNA, relative to the amount of APOE RNA in untreated control cells (% UTC). The half maximal inhibitory concentration (IC50) of each modified oligonucleotide was calculated in GraphPad Prism 10 (GraphPad Software, San Diego, CA) and is also presented in the table below.

[2] = tested on: BJAB cells; assay: Evaluation of proinflammatory effects in BJAB assay, CCL22 RNA (Example 17); conditions: for inflammatory response in human BJAB cells: 24-hour culturing period, assay of Example 17; for LOG10 CCL22 relative to UTC / Immunostimulatory Properties: BJAB cells, 1.6 μM, 24 hours; for LOG10 CCL22 relative to UTC: CCL22 RNA normalized to GAPDH; for Immunostimulatory Properties: assigned relative to internal control compounds of each assay
Procedure: (§2) Human APOE modified oligonucleotides were tested for potential immunostimulatory properties in an in vitro human BJAB activation assay.
(§3) Human Burkitt lymphoma B cells, BJAB cells (DSMZ, Cat #ACC 757) were cultured in RPMI1640 medium containing 20% fetal bovine serum at 37° C. and 5% CO2. Cells were maintained at a density of 0.5-0.7×10^6 cells per milliliter. Cells were transferred to 50 mL conical Falcon tubes and centrifuged at 330 RCF for 5 minutes before being resuspended at a concentration of 7.5×10^4 cells per milliliter in RPMI culture medium containing penicillin and streptomycin. 50 μL of the cell suspension was added to a v-bottom tissue culture treated 96-well microplate. 11 μl of 10× concentrated modified oligonucleotides was then added to the plate for a final concentration of 1.6 μM and incubated for 24 hours at 37° C. and 5% CO2.
(§4) After a treatment period of 24 hours, total RNA was isolated from the cells and CCL22 RNA levels were measured by quantitative real-time RT-PCR. CCL22 RNA levels were measured by human primer-probe set RTS49260 (forward sequence [sequence], designated herein as SEQ ID NO: 19; reverse sequence [sequence], designated herein as SEQ ID NO: 20; probe sequence [sequence], designated herein as SEQ ID NO: 21). CCL22 RNA levels were normalized to total RNA content, as measured by GAPDH. Human GAPDH was measured using the human primer-probe set RTS104 (forward sequence [sequence], designated herein as SEQ ID NO: 10; reverse sequence [sequence], designated herein as SEQ ID NO: 11; probe sequence [sequence], designated herein as SEQ ID NO: 12). Levels of CCL22 RNA is presented log fold increase of CCL22, relative to untreated control cells (UTC). The assignment of the immunostimulatory properties of the test compounds is based on the immunostimulatory properties of the internal control compounds in each assay.

[3] = tested on: human APOE RNA; assay: Activity in APOE 1549 knock-in mice, single ICV bolus, 4 weeks (Example 8); format: in vivo; conditions: n = 6, single ICV bolus 300 μg, 4 weeks
Procedure: Modified oligonucleotides described above were tested in the 1549 APOE knock-in mouse model described above.
APOE knock-in mice were divided into groups of either 2 or 6 mice each as described in the tables below. Each mouse received a single intracerebroventricular (ICV) bolus of 300 μg of modified oligonucleotide. A group of either 3 or 6 mice received a single ICV bolus with PBS as a negative control.
(§1) Four weeks post treatment, mice were sacrificed and RNA was extracted from cortical brain tissue and spinal cord for quantitative real-time RT-PCR analysis of RNA expression of APOE using primer probe set RTS3073 (described herein above). APOE RNA levels were normalized to mouse Ppia. Mouse Ppia was amplified using primer probe set m_cyclo24 (described herein above). Results are presented as percent human APOE RNA relative to the amount of human APOE RNA in PBS treated animals, (% control). Each experiment is identified in separate tables below.

[4] = tested on: BJAB cells
Procedure: as §2, §3, §4

[5] = tested on: human APOE RNA; assay: Dose-dependent inhibition of human APOE RNA in HepG2 cells, electroporation, 24 hours (Example 6); format: cell-based
How it was run: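 HepG2 cells, 50,000 per well, electroporated with various oligonucleotide concentrations. APOE RNA measured with primer probe set RTS3073, normalized to GAPDH (RTS104), expressed as % of untreated control; IC50 then calculated.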

[6] = tested on: human APOE RNA; assay: Activity in APOE C57BL/6NTac-Apoeem7250 knock-in mice, single ICV bolus, 2 weeks (Example 9); format: in vivo; conditions: single ICV bolus 300 μg
Procedure: Modified oligonucleotides described above were tested in the APOE knock-in mouse model C57BL/6NTac-Apoeem7250_B-A02(APOE)Tac, a heterozygous APOE mouse model. APOE knock-in mice used in this study express the full-length human APOE gene knocked into the mouse locus. Humanization of APOE gene was done via CRISPR/Cas-9-mediated gene editing, allowing for generation of a model with constitutive expression of human APOE gene. Targeting strategy was based on NCBI transcripts NM_009696.4 (mouse) and NM_000041.4 (human). Mouse genomic sequence from exon 1 to exon 4 (including the 5′ and 3′ UTRs) was replaced with the human counterpart from 141 bp upstream of exon 1 to 28 bp downstream of exon 4. A plasmid allowing expression of Cas9 mRNA, specific gRNA, and the puromycin resistance cassette, and a plasmid containing the homology regions of the mouse APOE gene, and the replaced human region were co-transfected into the Taconic Biosciences C57BL/6N Tac ES cell line. Homologous recombination clones were isolated using positive puromycin selection, and humanized allele was obtained after Cas9-mediated gene editing. C57BL/6NTac-Apoeem7250_B-A02(APOE)Tac mice were used in the in vivo experiments described below.
APOE C57BL/6NTac-Apoeem7250 knock-in mice were divided into groups of 3 mice each. Each mouse received a single ICV bolus of 300 μg of modified oligonucleotide. A group of 3 mice received a single ICV bolus with PBS as a negative control.
as §1, with “Two weeks post” for “Four weeks post”, “APOE using human primer probe” for “APOE using primer probe”, “(% control).” for “(% control). Each experiment is identified in separate tables below.”

| Substance | APOE RNA (% UTC) 5 nM [1] [% UTC] | APOE RNA (% UTC) 13 nM [1] [% UTC] | APOE RNA (% UTC) 33 nM [1] [% UTC] | APOE RNA (% UTC) 82 nM [1] [% UTC] | APOE RNA (% UTC) 205 nM [1] [% UTC] | APOE RNA (% UTC) 512 nM [1] [% UTC] | APOE RNA (% UTC) 1,280 nM [1] [% UTC] | APOE RNA (% UTC) 3,200 nM [1] [% UTC] | APOE RNA (% UTC) 8,000 nM [1] [% UTC] | APOE RNA (% UTC) 20,000 nM [1] [% UTC] | IC50 [1] [µM] | inflammatory response in human BJAB cells [2] | LOG10 CCL22 relative to UTC [2] | Immunostimulatory Properties [2] | inflammatory response in human BJAB cells [4] | further results |
| --- | --- | --- | --- | --- | --- | --- | --- | --- | --- | --- | --- | --- | --- | --- | --- | --- |
| TezTeoGeoGksTdsGdzAdzAdzTds^mCdsTdsTdsTdsAdzTksTksAesAesAes^mCe (antisense eT[ms]eTeGkG*dT*dG[ms]dA[ms]dA[ms]dT*d[5mC]*dT*dT*dT*dA[ms]kT*kT*eA*eA*eA*e[5mC]) [Compound No. 1809814] | 102 | 95 | 95 | 88 | 71 | 49 | 19 | 31 | 8 | 13 | 0.54 | did not induce any inflammatory response | 0.07 | Non-Inflammatory | – | – |
| ^mCksTksTksGdzGdzTdzGdzAdzAdzTds^mCdsTdsTdsTdsAdsTdsTksAksAdzAk (antisense k[5mC]*kT*kT*dG[ms]dG[ms]dT[ms]dG[ms]dA[ms]dA[ms]dT*d[5mC]*dT*dT*dT*dA*dT*kT*kA*dA[ms]kA) [Compound No. 1785602] | 75 | 85 | 75 | 62 | 44 | 31 | 16 | 10 | 8 | 2 | 0.14 | did not induce any inflammatory response | 0.34 | Non-Inflammatory | – | – |
| Aes^mCeoTeoTesGesGksTdsGdzAdzAdzTds^mCdsTdsTdsTdsAdzTksTksAesAe (eA*e[5mC]eTeT*eG*kG*dT*dG[ms]dA[ms]dA[ms]dT*d[5mC]*dT*dT*dT*dA[ms]kT*kT*eA*eA) [Compound No. 1757576] | 78 | 74 | 70 | 56 | 41 | 25 | 12 | 6 | 3 | 7 | 0.09 | – | – | – | did not induce any inflammatory response | APOE RNA (% control) Cortex ([3]; Cortex): 26 % control; APOE RNA (% control) Spinal Cord ([3]; Spinal Cord): 17 % control |
| Aks^mCeoTeoTesGesGksTdsGdzAdzAdzTds^mCdsTdsTdsTdsAdzTksTksAesAe (kA*e[5mC]eTeT*eG*kG*dT*dG[ms]dA[ms]dA[ms]dT*d[5mC]*dT*dT*dT*dA[ms]kT*kT*eA*eA) [Compound No. 1809635] | 105 | 87 | 78 | 66 | 55 | 31 | 18 | 16 | 4 | 2 | 0.21 | – | – | – | did not induce any inflammatory response | – |
| 1693105: 6-10-4 MOE gapmer CTTGGTGAATCTTTATTAAA, linkages sosssszzzssssszssss (e[5mC]*eTeT*eG*eG*eT*dG[ms]dA[ms]dA[ms]dT*d[5mC]*dT*dT*dT*dA[ms]dT*eT*eA*eA*eA) [compound 1693105] | – | – | – | – | – | – | – | – | – | – | – | – | – | – | – | IC50 [5]: 1.1 µM; APOE RNA (% UTC) ([5]; 5 nM): 117 % UTC; APOE RNA (% UTC) ([5]; 13 nM): 104 % UTC; APOE RNA (% UTC) ([5]; 33 nM): 118 % UTC; APOE RNA (% UTC) ([5]; 82 nM): 91 % UTC; APOE RNA (% UTC) ([5]; 205 nM): 101 % UTC; APOE RNA (% UTC) ([5]; 512 nM): 59 % UTC; APOE RNA (% UTC) ([5]; 1,280 nM): 43 % UTC; APOE RNA (% UTC) ([5]; 3,200 nM): 23 % UTC; APOE RNA (% UTC) ([5]; 8,000 nM): 21 % UTC; APOE RNA (% UTC) ([5]; 20,000 nM): 6 % UTC; APOE RNA (% control) Cortex ([6]; Cortex): 65 % control; APOE RNA (% control) Spinal Cord ([6]; Spinal Cord): 54 % control |

— patent US20250353873A1, “COMPOUNDS AND METHODS FOR MODULATING APOE EXPRESSION” (Ionis Pharmaceuticals, Inc., priority 2024, published 2025)
